# What was measured:
# large crabgrass [1] = assay: Foliar treatment test (2); format: in vivo; conditions: 20th day after treatment; note: ranges in brackets are in %
# Method: (§1) 90 Parts by weight of the above carrier and 10 parts by weight of each of Compounds obtained in the above Preparation Examples were uniformly pulverized and mixed to obtain herbicides. Further, for Herbicide Comparative Examples, comparative herbicides were prepared by uniformly pulverizing and mixing 90 parts by weight of the above carrier and 10 parts by weight of each of the following Compounds x, y, A, B and C.
# (§2) (2) Biological Test (Foliar Treatment Test, Herbicide Examples 1 and 2 and Herbicide Comparative Examples 1 and 2)
# (§3) Seeds of weeds such as large crabgrass, barnyard grass, green foxtail, cocklebur, velvetleaf and slender amaranth and seeds of corn, wheat and barley were sown in 1/5,000-are Wagner pots filled with upland soil, and covered with upland soil. The seeds were grown in a greenhouse, and at the stage of 1˜2 leaves of these plants, a predetermined amount of the herbicide prepared in the above (1) was suspended in water and uniformly sprayed onto leaf and stalk portions at a rate of 200 liter/10 are. Thereafter, the plants were grown in the greenhouse, and on 20th day after the treatment, the herbicide was evaluated for herbicidal efficacy.
# (§4) The herbicidal efficacy and phytotoxcity to crops were shown on the basis of the following ratings.
# (§5) The ratio of remaining plant weight to non-treated was determined on the basis of the ratio of remaining plant weight to non-treated=(remaining plant weight in treated plot/remaining plant weight in non-treated plot)×100. This is also applicable to biological tests hereinafter.
# barnyard grass [2] = assay: Foliar treatment test (2); format: in vivo; conditions: 20th day after treatment; note: ranges in brackets are in %
# Method: as §1, §2, §3, §4, §5
# cocklebur [3] = assay: Foliar treatment test (2); format: in vivo; conditions: 20th day after treatment; note: ranges in brackets are in %
# Method: as §1, §2, §3, §4, §5
# slender amaranth [4] = assay: Foliar treatment test (2); format: in vivo; conditions: 20th day after treatment; note: ranges in brackets are in %
# Method: as §1, §2, §3, §4, §5
# green foxtail [5] = assay: Foliar treatment test (2); format: in vivo; conditions: 20th day after treatment; note: ranges in brackets are in %
# Method: as §1, §2, §3, §4, §5
# velvetleaf [6] = assay: Foliar treatment test (2); format: in vivo; conditions: 20th day after treatment; note: ranges in brackets are in %
# Method: as §1, §2, §3, §4, §5
# large crabgrass [7] = assay: Upland soil treatment test (5); format: in vivo; conditions: dosage 100 g a.i./hectare, 20th day after treatment; note: ranges in brackets are in %
# Summary of the method: (§6)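 Pre-emergence: 10% active ingredient powder formulation suspended in water and sprayed onto soil surface after sowing weeds and corn in upland soil pots; dose given as active ingredient per hectare. Greenhouse-grown, herbicidal efficacy and corn phytotoxicity rated on day 20 after treatment, with air-dried weights measured.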
# barnyard grass [8] = assay: Upland soil treatment test (5); format: in vivo; conditions: dosage 100 g a.i./hectare, 20th day after treatment; note: ranges in brackets are in %
# Summary of the method: as §6
# cocklebur [9] = assay: Upland soil treatment test (5); format: in vivo; conditions: dosage 100 g a.i./hectare, 20th day after treatment; note: ranges in brackets are in %
# Summary of the method: as §6
# slender amaranth [10] = assay: Upland soil treatment test (5); format: in vivo; conditions: dosage 100 g a.i./hectare, 20th day after treatment; note: ranges in brackets are in %
# Summary of the method: as §6
# green foxtail [11] = assay: Upland soil treatment test (5); format: in vivo; conditions: dosage 100 g a.i./hectare, 20th day after treatment; note: ranges in brackets are in %
# Summary of the method: as §6
# velvetleaf [12] = assay: Upland soil treatment test (5); format: in vivo; conditions: dosage 100 g a.i./hectare, 20th day after treatment; note: ranges in brackets are in %
# Summary of the method: as §6
# large crabgrass [13] = assay: Upland soil treatment test (3); format: in vivo; conditions: 20th day after treatment; note: ranges in brackets are in %
# Method: as §1
# (§7) (3) Biological Test (Upland Soil Treatment Test, Herbicide Examples 3 and 4 and Herbicide Comparative Examples 3 and 4)
# (§8) Seeds of weeds such as large crabgrass, barnyardgrass, green foxtail, cocklebur, velvetleaf and slender amaranth and seeds of corn, wheat and barley were sown in 1/5,000-are Wagner pots filled with upland soil, and covered with upland soil. Then, a predetermined amount of the herbicide prepared in the above (1) was suspended in water and uniformly sprayed onto the soil surface. Thereafter, the plants were grown in the greenhouse, and on 20th day after the treatment, the herbicide was evaluated for herbicidal efficacy.
# (§9) The herbicidal efficacy and the phytotoxicity to crops are shown on the basis of the ratings described in (2) Foliar treatment test.
# barnyard grass [14] = assay: Upland soil treatment test (3); format: in vivo; conditions: 20th day after treatment; note: ranges in brackets are in %
# Method: as §1, §7, §8, §9
# cocklebur [15] = assay: Upland soil treatment test (3); format: in vivo; conditions: 20th day after treatment; note: ranges in brackets are in %
# Method: as §1, §7, §8, §9
# slender amaranth [16] = assay: Upland soil treatment test (3); format: in vivo; conditions: 20th day after treatment; note: ranges in brackets are in %
# Method: as §1, §7, §8, §9
# green foxtail [17] = assay: Upland soil treatment test (3); format: in vivo; conditions: 20th day after treatment; note: ranges in brackets are in %
# Method: as §1, §7, §8, §9
# velvetleaf [18] = assay: Upland soil treatment test (3); format: in vivo; conditions: 20th day after treatment; note: ranges in brackets are in %
# Method: as §1, §7, §8, §9
# corn = assay: Upland soil treatment test (5), phytotoxicity; format: in vivo; conditions: dosage 100 g a.i./hectare, 20th day after treatment
# Summary of the method: as §6
# large crabgrass [19] = assay: Foliar treatment test (7); format: in vivo; conditions: 300 g a.i./hectare, 20th day after spraying; note: ranges in brackets are in %
# Method: as §1
# (§10) (7) Biological Test (Foliar Treatment Test, Herbicide Examples 43-47 and Comparative Examples 11 and 12)
# as §3, with “large crabgrass, barnyardgrass, green foxtail,” for “large crabgrass, barnyard grass, green foxtail,”, “stage of 1 to 2 leaves of” for “stage of 1˜2 leaves of”, “200 liter/10 ares. Thereafter, the” for “200 liter/10 are. Thereafter, the”, “and on the 20th day” for “and on 20th day”, “after the spraying treatment, the” for “after the treatment, the”
# as §4, §5
# barnyardgrass = assay: Foliar treatment test (7); format: in vivo; conditions: 300 g a.i./hectare, 20th day after spraying; note: ranges in brackets are in %
# Method: as §1, §10
# as §3, with “large crabgrass, barnyardgrass, green foxtail,” for “large crabgrass, barnyard grass, green foxtail,”, “stage of 1 to 2 leaves of” for “stage of 1˜2 leaves of”, “200 liter/10 ares. Thereafter, the” for “200 liter/10 are. Thereafter, the”, “and on the 20th day” for “and on 20th day”, “after the spraying treatment, the” for “after the treatment, the”
# as §4, §5
# cocklebur [20] = assay: Foliar treatment test (7); format: in vivo; conditions: 300 g a.i./hectare, 20th day after spraying; note: ranges in brackets are in %
# Method: as §1, §10
# as §3, with “large crabgrass, barnyardgrass, green foxtail,” for “large crabgrass, barnyard grass, green foxtail,”, “stage of 1 to 2 leaves of” for “stage of 1˜2 leaves of”, “200 liter/10 ares. Thereafter, the” for “200 liter/10 are. Thereafter, the”, “and on the 20th day” for “and on 20th day”, “after the spraying treatment, the” for “after the treatment, the”
# as §4, §5
# slender amaranth [21] = assay: Foliar treatment test (7); format: in vivo; conditions: 300 g a.i./hectare, 20th day after spraying; note: ranges in brackets are in %
# Method: as §1, §10
# as §3, with “large crabgrass, barnyardgrass, green foxtail,” for “large crabgrass, barnyard grass, green foxtail,”, “stage of 1 to 2 leaves of” for “stage of 1˜2 leaves of”, “200 liter/10 ares. Thereafter, the” for “200 liter/10 are. Thereafter, the”, “and on the 20th day” for “and on 20th day”, “after the spraying treatment, the” for “after the treatment, the”
# as §4, §5
# green foxtail [22] = assay: Foliar treatment test (7); format: in vivo; conditions: 300 g a.i./hectare, 20th day after spraying; note: ranges in brackets are in %
# Method: as §1, §10
# as §3, with “large crabgrass, barnyardgrass, green foxtail,” for “large crabgrass, barnyard grass, green foxtail,”, “stage of 1 to 2 leaves of” for “stage of 1˜2 leaves of”, “200 liter/10 ares. Thereafter, the” for “200 liter/10 are. Thereafter, the”, “and on the 20th day” for “and on 20th day”, “after the spraying treatment, the” for “after the treatment, the”
# as §4, §5
# velvetleaf [23] = assay: Foliar treatment test (7); format: in vivo; conditions: 300 g a.i./hectare, 20th day after spraying; note: ranges in brackets are in %
# Method: as §1, §10
# as §3, with “large crabgrass, barnyardgrass, green foxtail,” for “large crabgrass, barnyard grass, green foxtail,”, “stage of 1 to 2 leaves of” for “stage of 1˜2 leaves of”, “200 liter/10 ares. Thereafter, the” for “200 liter/10 are. Thereafter, the”, “and on the 20th day” for “and on 20th day”, “after the spraying treatment, the” for “after the treatment, the”
# as §4, §5
# large crabgrass [24] = assay: Upland soil treatment test (8); format: in vivo; conditions: 300 g a.i./hectare, 20th day after spraying; note: ranges in brackets are in %
# Method: as §1
# (§11) (8) Biological Test (Upland Soil Treatment Test, Herbicide Examples 48-52 and Herbicide Comparative Examples 13 and 14)
# (§12) Seeds of weeds such as large crabgrass, barnyard brass, green foxtail, cocklebur, velvetleaf and slender amarnth and seeds of corn, wheat and barley were sown in 1/5,000-are Wagner pots filled with upland soil, and covert with upland soil. Then, a predetermined amount of the herbicide prepared in the above (1) was suspended in water and uniformly sprayed onto the soil surface. Thereafter, the plant were grown in the greenhouse, and on the 20th day after the spraying treatment, the herbicide was evaluated for herbicidal efficacy.
# as §9
# barnyard grass [25] = assay: Upland soil treatment test (8); format: in vivo; conditions: 300 g a.i./hectare, 20th day after spraying; note: ranges in brackets are in %
# Method: as §1, §11, §12, §9
# cocklebur [26] = assay: Upland soil treatment test (8); format: in vivo; conditions: 300 g a.i./hectare, 20th day after spraying; note: ranges in brackets are in %
# Method: as §1, §11, §12, §9
# slender amaranth [27] = assay: Upland soil treatment test (8); format: in vivo; conditions: 300 g a.i./hectare, 20th day after spraying; note: ranges in brackets are in %
# Method: as §1, §11, §12, §9
# green foxtail [28] = assay: Upland soil treatment test (8); format: in vivo; conditions: 300 g a.i./hectare, 20th day after spraying; note: ranges in brackets are in %
# Method: as §1, §11, §12, §9
# velvetleaf [29] = assay: Upland soil treatment test (8); format: in vivo; conditions: 300 g a.i./hectare, 20th day after spraying; note: ranges in brackets are in %
# Method: as §1, §11, §12, §9
smiles,measurement,setting,value
"CCn1ncc(C(=O)c2cc(C)c3c(c2C)C(C)(C)CCS3(=O)=O)c1O [Compound 1, 4,4,5,8-tetramethyl-6-(1-ethyl-5-hydroxypyrazol-4-yl)carbonyl-thiochroman-1,1-dioxide]",melting point,,208.8 to 209.3 °C
same,Herbicidal Efficacy large crabgrass,large crabgrass [1]; dosage 3 g a.i./are,5 (0)
same,Herbicidal Efficacy large crabgrass,large crabgrass [1]; dosage 10 g a.i./are,5 (0)
same,Herbicidal Efficacy barnyard grass,barnyard grass [2]; dosage 3 g a.i./are,5 (0)
same,Herbicidal Efficacy barnyard grass,barnyard grass [2]; dosage 10 g a.i./are,5 (0)
same,Herbicidal Efficacy cocklebur,cocklebur [3]; dosage 3 g a.i./are,5 (0)
same,Herbicidal Efficacy cocklebur,cocklebur [3]; dosage 10 g a.i./are,5 (0)
same,Herbicidal Efficacy slender amaranth,slender amaranth [4]; dosage 3 g a.i./are,5 (0)
same,Herbicidal Efficacy slender amaranth,slender amaranth [4]; dosage 10 g a.i./are,5 (0)
same,Herbicidal Efficacy green foxtail,green foxtail [5]; dosage 3 g a.i./are,5 (0)
same,Herbicidal Efficacy green foxtail,green foxtail [5]; dosage 10 g a.i./are,5 (0)
same,Herbicidal Efficacy velvetleaf,velvetleaf [6]; dosage 3 g a.i./are,5 (0)
same,Herbicidal Efficacy velvetleaf,velvetleaf [6]; dosage 10 g a.i./are,5 (0)
same,Herbicidal Efficacy large crabgrass,large crabgrass [7],5 (0)
same,Herbicidal Efficacy barnyard grass,barnyard grass [8],5 (0)
same,Herbicidal Efficacy cocklebur,cocklebur [9],5 (0)
same,Herbicidal Efficacy slender amaranth,slender amaranth [10],5 (0)
same,Herbicidal Efficacy green foxtail,green foxtail [11],5 (0)
same,Herbicidal Efficacy velvetleaf,velvetleaf [12],5 (0)
same,Herbicidal Efficacy large crabgrass,large crabgrass [13]; dosage 3 g a.i./are,5 (0)
same,Herbicidal Efficacy large crabgrass,large crabgrass [13]; dosage 10 g a.i./are,5 (0)
same,Herbicidal Efficacy barnyard grass,barnyard grass [14]; dosage 3 g a.i./are,5 (0)
same,Herbicidal Efficacy barnyard grass,barnyard grass [14]; dosage 10 g a.i./are,5 (0)
same,Herbicidal Efficacy cocklebur,cocklebur [15]; dosage 3 g a.i./are,5 (0)
same,Herbicidal Efficacy cocklebur,cocklebur [15]; dosage 10 g a.i./are,5 (0)
same,Herbicidal Efficacy slender amaranth,slender amaranth [16]; dosage 3 g a.i./are,5 (0)
same,Herbicidal Efficacy slender amaranth,slender amaranth [16]; dosage 10 g a.i./are,5 (0)
same,Herbicidal Efficacy green foxtail,green foxtail [17]; dosage 3 g a.i./are,5 (0)
same,Herbicidal Efficacy green foxtail,green foxtail [17]; dosage 10 g a.i./are,5 (0)
same,Herbicidal Efficacy velvetleaf,velvetleaf [18]; dosage 3 g a.i./are,5 (0)
same,Herbicidal Efficacy velvetleaf,velvetleaf [18]; dosage 10 g a.i./are,5 (0)
same,Phyto-toxicity to corn,corn,0 (100)
"CCn1ncc(C(=O)c2cc(C)c3c(c2C)C=CCS3)c1O [Compound 47-1, 5,8-dimethyl-6-(1-ethyl-5-hydroxypyrazol-4-yl)carbonyl-3,4-dehydrothiochroman]",Herbicidal Efficacy large crabgrass,large crabgrass [19],0 (81-100)
same,Herbicidal Efficacy barnyard grass,barnyardgrass,0 (81-100)
same,Herbicidal Efficacy cocklebur,cocklebur [20],5 (0)
same,Herbicidal Efficacy slender amaranth,slender amaranth [21],0 (81-100)
same,Herbicidal Efficacy green foxtail,green foxtail [22],0 (81-100)
same,Herbicidal Efficacy velvetleaf,velvetleaf [23],4 (1-20)
same,Herbicidal Efficacy large crabgrass,large crabgrass [24],0 (81-100)
same,Herbicidal Efficacy barnyard grass,barnyard grass [25],0 (81-100)
same,Herbicidal Efficacy cocklebur,cocklebur [26],0 (81-100)
same,Herbicidal Efficacy slender amaranth,slender amaranth [27],5 (0)
same,Herbicidal Efficacy green foxtail,green foxtail [28],0 (81-100)
same,Herbicidal Efficacy velvetleaf,velvetleaf [29],0 (81-100)
